Our source for the GI50 and TGI values is PubChem BioAssay (NCI).

Assay in all cases: NCI tumour cell line growth inhibition, 48 h
Assay [1] has as its system A549 NSCLC.
In assay [2] the test system is EKVX NSCLC.
In assay [3] the test system is MDA-MB-231 breast.
Assay [4] has as its system OVCAR-8 ovarian.
Assay [5] has as its system SF-268 CNS.
For assay [6], the system named is SK-OV-3 ovarian.
For assay [7], the system named is SN12C renal.
The test system of assay [8] is SNB-75 CNS.

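Each compound was tested at five concentrations against cells in 96-well plates for 48 hours. Here, GI50 denotes the concentration required for 50% inhibition of growth. The concentration for full growth arrest is given as TGI.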

In the case of `O=C(c1cccs1)c1c(C(F)(F)F)n([O-])c2ccccc2[n+]1=O`, the GI50 in assay [1] is 1.36 µM; in assay [2], 0.798 µM; in assay [3], 0.639 µM; in assay [4], 0.601 µM; in assay [5] it was 0.395 µM; in assay [6], 2.11 µM. Besides, the GI50 is 0.737 µM in assay [7] and 2.94 µM in assay [8]. In addition, the TGI worked out at 3.78 µM in assay [1]; 1.55 µM in assay [2]; 1.53 µM in assay [3]; 1.94 µM in assay [4]; 1.16 µM in assay [5]; 7.56 µM in assay [6]. Further, the TGI is 1.67 µM in assay [7] and 9.05 µM in assay [8].

`COc1cc(C(=O)NC2c3ccccc3-c3ccccc32)c(N)cc1OCc1ccccc1`: the GI50 is 17.9 µM in assay [1]; 5.28 µM in assay [2]; 17.2 µM in assay [3]; 24.2 µM in assay [4]; 16.8 µM in assay [5]; 16.9 µM in assay [6]. Besides, the figures for the GI50 in assay [7] and in assay [8] were 11.4 µM and 7.84 µM, respectively. The TGI in assay [1] was over 100 µM; in assay [2] it was 45 µM; in assay [3], 47.1 µM; in assay [4], over 100 µM; in assay [5] it was over 62.1 µM; in assay [6], 43.8 µM. In addition, the figures for the TGI in assay [7] and in assay [8] were 48.9 µM and 30.7 µM, respectively.

Turning to `NC(N)=N/N=C(/c1ccccc1)c1ccc(F)cc1`, the GI50 in assay [1] was 0.512 µM; in assay [2], 0.65 µM; in assay [3], 0.649 µM; in assay [4], 0.593 µM; in assay [5] it was 0.543 µM; in assay [6], 0.371 µM. Further, the GI50 in assay [7] was 0.817 µM; in assay [8], 0.183 µM. The TGI in assay [1] was over 34.6 µM; in assay [2] it was 36.5 µM; in assay [3], 14 µM; in assay [4] it was over 35.1 µM; in assay [5] it was 14.4 µM; in assay [6] it was 12.8 µM. Further, the figures for the TGI in assay [7] and in assay [8] were 22.2 µM and 3.09 µM, respectively.

`COc1ccc(C(=S)N2CCN(c3cccc(Cl)c3)CC2)cc1`: the GI50 in assay [1] is over 100 µM; in assay [2], 91.7 µM; in assay [3], 43.9 µM; in assay [4], over 100 µM; in assay [5], over 100 µM; in assay [6], over 100 µM. In addition, the GI50 in assay [7] is over 100 µM; in assay [8], 45.1 µM. Further, the TGI in assay [1], in assay [2], in assay [3], in assay [4], in assay [5] and in assay [6] was over 100 µM each time. Further, the TGI in assay [7] and in assay [8] was over 100 µM each time.

Regarding `Nc1n[nH]c2ccc([C@@H]3Nc4ccc5[nH]ncc5c4[C@H]4[C@H]5CCC(C5)[C@H]43)cc12`, the GI50 in assay [1] is 0.586 µM; in assay [2], 0.606 µM; in assay [3], 0.688 µM; in assay [4], 0.479 µM; in assay [5], 1.56 µM; in assay [6], 0.823 µM. The GI50 was 0.618 µM in assay [7] and 0.16 µM in assay [8]. In addition, the TGI in assay [1] is over 100 µM; in assay [2], over 100 µM; in assay [3], 18.5 µM; in assay [4] it was over 47.5 µM; in assay [5], 43.7 µM; in assay [6] it was over 80.1 µM. Further, the TGI is over 89.7 µM in assay [7] and 11.3 µM in assay [8].

For `CC(C)(C)OC(=O)NC(Cc1ccccc1)C(=O)OCN1C(=O)C2C3C=CC(C2C1=O)C1C2C(=O)N(COC(=O)C(Cc4ccccc4)NC(=O)OC(C)(C)C)C(=O)C2C31` (stereo unspecified), the TGI in assay [1] was over 73.8 µM; in assay [2] it was over 100 µM; in assay [3], over 94.2 µM; in assay [4] it was over 100 µM; in assay [5], over 88.9 µM; in assay [6], over 95.5 µM. In addition, the TGI was over 100 µM in assay [7] and 58.9 µM in assay [8].

For the compound `COc1cc2ncn(-c3cc(OCc4ccccc4Cl)c(C(N)=O)s3)c2cc1OC`, the GI50 was 0.29 µM in assay [1]; 1.25 µM in assay [2]; 0.247 µM in assay [3]; 0.23 µM in assay [4]; 0.187 µM in assay [5]; 0.274 µM in assay [6]. In addition, the values for the GI50 in assay [7] and in assay [8] were 1.48 µM and 0.707 µM, respectively. In addition, the TGI is over 10.8 µM in assay [1]; over 25 µM in assay [2]; 8.13 µM in assay [3]; over 20.7 µM in assay [4]; over 13 µM in assay [5]; 9.32 µM in assay [6]. Moreover, the TGI in assay [7] was over 25 µM; in assay [8] it was 6.47 µM.

For the compound `COc1ccc(-c2nn(-c3cccc(Cl)c3)cc2C2CC(c3ccccc3)=NN2C(C)=O)cc1` (stereo unspecified), the GI50 is 7.58 µM in assay [1]; 8.75 µM in assay [2]; 7.99 µM in assay [3]; 4.75 µM in assay [4]; 3.13 µM in assay [5]; 6.85 µM in assay [6]. The GI50 in assay [7] is 8.35 µM; in assay [8], 1.76 µM. For the same compound, the TGI in assay [1] was over 100 µM; in assay [2], over 100 µM; in assay [3] it was over 100 µM; in assay [4], over 100 µM; in assay [5], 14.2 µM; in assay [6] it was 43.2 µM. Besides, the TGI was over 100 µM in assay [7] and 5.99 µM in assay [8].

As for `C=C1CCC2C(/C=C(\C)CCC1O)OC(=O)C2C` (stereo unspecified), the GI50 in assay [1], in assay [2], in assay [3], in assay [4], in assay [5] and in assay [6] was over 100 µM each time. Moreover, the GI50 in assay [7] and in assay [8] was over 100 µM each time. Besides, the TGI in assay [1], in assay [2], in assay [3], in assay [4], in assay [5] and in assay [6] was over 100 µM throughout. Moreover, the TGI in assay [7] and in assay [8] was over 100 µM throughout.
